This is an account of results in PMC8032764 (Scientific Reports, 2021).

The target in data set [1] is GABAA α5β3γ2. The note with it: Table S4a, read-out: Ki α5β3γ2, cited from earlier work.
In data set [2] the target is GABAA α1β3γ2. The note with it: Table S4a, cited from earlier work.
The target in data set [3] is GABAA α2β3γ2. The settings on record: Table S4a, cited from earlier work.
Data set [4] deals with healthy elderly humans. The note with it: cited from earlier work.
Data set [5] concerns the target GABAA α3β3γ2. The settings on record: Table S4a, cited from earlier work.
Data set [6] relates to CYP1A2. The note with it: rats, reduced plasma exposure on chronic dosing; cited from earlier work.
Data set [7] concerns binding sites of [3H]-Ro 15-4513 in the hippocampus. The note with it: similar experiments; cited from earlier work.
The subject of data set [8] is non-impaired rodents. Put plainly: Cognitive performance in non-impaired rodents. In kind it is in vivo. The note with it: data not shown.
Data set [9] deals with T1, human α6β3γ2 (Homo sapiens, UniProt P18507+Q16445).
T1 construct: expressed in transfected cells; host or cells: HEK293-EBNA, transient
T1 sequence (Q16445 20-453): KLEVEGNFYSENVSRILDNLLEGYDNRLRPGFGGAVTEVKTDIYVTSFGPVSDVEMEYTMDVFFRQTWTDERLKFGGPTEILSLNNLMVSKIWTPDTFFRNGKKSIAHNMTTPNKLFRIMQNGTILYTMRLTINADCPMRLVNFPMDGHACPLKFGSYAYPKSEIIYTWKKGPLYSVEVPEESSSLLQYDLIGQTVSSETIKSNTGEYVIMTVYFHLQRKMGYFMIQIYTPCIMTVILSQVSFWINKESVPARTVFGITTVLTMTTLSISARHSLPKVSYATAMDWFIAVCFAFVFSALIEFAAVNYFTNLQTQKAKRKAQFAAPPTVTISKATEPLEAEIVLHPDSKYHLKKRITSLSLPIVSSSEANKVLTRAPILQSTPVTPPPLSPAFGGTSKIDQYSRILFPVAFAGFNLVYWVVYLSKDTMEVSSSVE
T1 sequence (P28472 26-473 partner): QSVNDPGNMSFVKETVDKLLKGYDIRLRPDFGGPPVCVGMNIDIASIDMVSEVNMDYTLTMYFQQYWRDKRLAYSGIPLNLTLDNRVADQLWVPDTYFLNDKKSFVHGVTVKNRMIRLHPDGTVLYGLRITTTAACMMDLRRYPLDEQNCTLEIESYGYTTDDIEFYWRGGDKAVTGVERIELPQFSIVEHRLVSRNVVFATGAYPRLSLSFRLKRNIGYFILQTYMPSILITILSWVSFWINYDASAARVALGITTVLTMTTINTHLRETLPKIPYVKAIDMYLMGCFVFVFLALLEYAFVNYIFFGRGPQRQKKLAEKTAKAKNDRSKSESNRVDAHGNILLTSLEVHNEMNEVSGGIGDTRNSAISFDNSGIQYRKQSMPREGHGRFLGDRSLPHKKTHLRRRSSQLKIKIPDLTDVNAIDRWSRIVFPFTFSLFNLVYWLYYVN
T1 sequence (P18507 40-475): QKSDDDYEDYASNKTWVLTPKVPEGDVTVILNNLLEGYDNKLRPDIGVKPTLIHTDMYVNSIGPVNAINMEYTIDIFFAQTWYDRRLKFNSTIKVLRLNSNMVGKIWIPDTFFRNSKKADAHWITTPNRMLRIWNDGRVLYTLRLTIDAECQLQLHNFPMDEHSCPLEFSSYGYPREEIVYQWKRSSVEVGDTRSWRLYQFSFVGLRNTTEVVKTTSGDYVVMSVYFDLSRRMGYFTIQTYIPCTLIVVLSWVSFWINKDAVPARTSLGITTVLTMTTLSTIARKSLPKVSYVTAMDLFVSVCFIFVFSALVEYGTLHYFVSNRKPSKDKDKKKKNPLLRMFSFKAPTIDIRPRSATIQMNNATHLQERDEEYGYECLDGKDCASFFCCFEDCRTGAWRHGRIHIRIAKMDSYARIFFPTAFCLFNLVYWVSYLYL
The note with it: previously determined; read-out: Kd of the radiolabel; cited from earlier work.

Data set [10] has as its target human GABAA α5β3γ2 (Homo sapiens, UniProt P18507+P31644). Put plainly: Two-electrode voltage clamp in Xenopus oocytes, current induced by EC10 of GABA. In kind it is cell-based. Set-up: expressed in transfected cells; host or cells: Xenopus laevis oocytes, cRNA injection. The note with it: 1000 nM, n = 12, not shown. The procedure:
Freshly prepared oocytes of maturation stage VI were bought from Ecocyte Bioscience (Castrop-Rauxel, Germany) and, after overnight delivery, plated into 96-well plates (Greiner no. 651101) for microinjection on a ROBOOCYTE R16 system (Multichannel Systems MCS GmbH, Reutlingen, Germany). Each oocyte was injected with roughly 50 nL of RNA solution. The solution for expressing receptors composed of the human α1, β2 and γ2 subunits contained 3 pg/nL of α1 and β2 RNA and 15 pg/nL of γ2 RNA. The solution for expressing human α2β3γ2 receptors contained 2.5 pg/nL of α2 and β3 RNA, 5 pg/nL of γ2 RNA and 10 pg/nL of GABARAP RNA. The solution for expressing human α3β3γ2 receptors contained 1.3 pg/nL of α3 and β3 RNA and 6.5 pg/nL of γ2 RNA. The solution for expressing human α5β3γ2 receptors contained 1.3 pg/nL of α5 and β3 RNA and 13 pg/nL of γ2 RNA. […] After the microinjection the oocytes were kept at 20 °C temperature until the electrophysiological experiment. Experiments were done 3 to 5 days later on the ROBOOCYTE instrument which employs the two-microelectrode voltage-clamp technique for membrane voltage control and current measurement. […] During current recording and compound testing the cell membrane was constantly clamped to − 80 mV. Current signals were recorded and stored on a PC-type computer using the ROBOOCYTE software.
During the microinjection and up to the electrophysiological experiment the oocytes were kept in a solution containing 88 mM NaCl, 1 mM KCl, 2.5 mM NaHCO3, 10 mM HEPES (AppliChem GmbH, Darmstadt, Germany), 0.82 MgSO4, 0.33 mM Ca(NO3)2, 0.33 mM CaCl2, 100 U/mL penicillin (GIBCO, ThermoFisher Scientific) and 100 µg/mL streptomycine (GIBCO, ThermoFisher Scientific). The pH was adjusted to 7.5. During the experiment the voltage-clamped oocyte was constantly superfused by a solution containing 90 mM NaCl, 1 mM KCl, 5 mM HEPES (AppliChem), 1 mM MgCl2 and 1 mM CaCl2 (pH 7.4). GABA and test compounds were added to this solution. GABA concentrations were chosen according to previously determined concentration–response relations for the different human GABAA receptor subunit combinations. Concentrations evoking approximately 10% of a maximal response were selected, i.e., 8 µM for α1β2γ2, 6 µM for α2β3γ2, 10 µM for α3β3γ2 and 5 µM for α5β3γ2. Solutions containing GABA or test compounds were freshly prepared at least every second day. […] Compounds were further diluted in DMSO and finally in extracellular saline to reach a DMSO concentration of 0.1%. The same amount of DMSO was added to the control solutions without test compounds.
During the experiment the solutions were fed into the well containing the voltage-clamped oocyte via Teflon tubings connected by electromagnetic valves which allowed rapid switching between different solutions (controlled by the ROBOCYTE software). Approximately 1–2 min after impaling an oocyte and switching to voltage-clamp mode GABA was applied for 90 s to record a control response. Thereafter the oocyte was washed with saline for 160 s followed by another 90 s GABA application. Then 30 s after the onset of the second GABA application the system switched to a solution containing GABA plus the test compound. Each oocyte was used for testing one concentration of a single test compound (for α5β3γ2: 1 nM: n = 8, 10 nM: n = 8, 100 nM: n = 7, 1000 nM: n = 7).
In this case each GABA application lasted 110 s and the rest period between the two GABA applications was 190 s long.
On each 96-well plate 3–6 oocytes were used for testing a known NAM at the BZD binding site, β-CCM (FG7106), as a positive control. […] Maximally effective concentrations of β-CCM were used for each subunit combination, i.e., 100 nM β-CCM for α1β2γ2, 300 nM for α2β3γ2 or α3β3γ2 and 1 µM for α5β3γ2.

The subject of data set [11] is healthy volunteers. Briefly: Resting state EEG in healthy volunteers. In kind it is in vivo, human. The settings on record: midazolam single dose, 1 h post dose. The procedure:
Full details of the protocol can be found in the Supplementary Information. The study was registered on October 2, 2014 with clinicaltrials.gov identifier NCT02254759. The DDI study was approved by the National Research Ethics Service (NRES) Committee South Central—Berkshire B. EEG was included in the study as one of the pharmacodynamic outcome measures.
Resting state EEG (4 min eyes open, 4 min eyes closed) was recorded at 4 days 1 h and 4 h after dosing at morning (similar time at baseline day). […] The EEG recording from day 16 is not reported here. The EEG technician kept the subject alert (vigilance controlled resting state condition). As soon as drowsiness patterns appeared (slow rolling eye movements, attenuated alpha rhythm replaced by low amplitude), the subject was aroused by auditory stimuli (tapping or clicking).
EEG was recorded from 19 Ag/AgCl electrodes arranged according to the 10/20 system and mounted in an elastic cap. EOG was recorded simultaneously from five electrodes. […]
Power spectral estimates were derived for logarithmically scaled frequencies with a logarithmic frequency smoothing using Morlet Wavelets with a spectral smoothing of 1/2 octave (f/σf = 5.83). […] For analyses of “relative power” the power was normalized to 1 across the frequency range analyzed. […]

For data set [12], the system named is preclinical species. Details: method as in PMID 15918586. The note with it: cited from earlier work.
Data set [13] deals with humans. The settings on record: experimental medicine study; cited from earlier work.

Molecules are shown by their SMILES. Where two headings read alike, the source gives them in different places.

Chain of human GABAA α5β3γ2 (P31644 32-462): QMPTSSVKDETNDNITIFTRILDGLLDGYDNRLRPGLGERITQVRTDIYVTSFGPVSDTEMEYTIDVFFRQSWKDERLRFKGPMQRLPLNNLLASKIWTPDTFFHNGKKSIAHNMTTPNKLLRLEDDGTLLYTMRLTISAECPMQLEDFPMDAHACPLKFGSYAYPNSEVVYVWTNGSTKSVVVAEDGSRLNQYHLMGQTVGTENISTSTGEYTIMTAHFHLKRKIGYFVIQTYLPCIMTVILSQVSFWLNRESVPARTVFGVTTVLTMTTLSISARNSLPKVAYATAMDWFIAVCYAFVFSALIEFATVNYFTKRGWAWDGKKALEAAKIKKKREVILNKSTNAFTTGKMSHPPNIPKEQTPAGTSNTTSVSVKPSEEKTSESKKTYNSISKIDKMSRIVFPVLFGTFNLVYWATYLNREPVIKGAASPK
Chain of human GABAA α5β3γ2 (P28472 26-473 partner): as the sequence (P28472 26-473 partner) above
Chain of human GABAA α5β3γ2 (P18507 40-475): as the sequence (P18507 40-475) above

In general, Ki refers to the equilibrium dissociation constant of an inhibitor or competing ligand from its target. Consider `Cc1cc(-c2nncc3c(C(C)(C)C)c(OCc4ncnn4C)nn23)no1` [MRK-016, 3-tert-butyl-7-(5-methylisoxazol-3-yl)-2-(1-methyl-1H-1,2,4-triazol-5-ylmethoxy)-pyrazolo[1,5-d]-[1,2,4]triazine], for which the Ki in data set [1] (ref Atack et al. 2009) was 1.4 nM; in data set [2] (ref Atack et al. 2009), 0.8 nM; in data set [3] (ref Atack et al. 2009), 0.9 nM. In addition, the “reason why development was stopped” value in data set [4] was “poor tolerability in healthy elderly humans”.

As for `FC(F)c1ncn2c1Cn1ncnc1-c1cc(Br)ccc1-2` [RO4938581], the Ki is 80 nM in data set [5] (ref Ballard et al., 2008); 4.6 nM in [1] (ref Ballard et al., 2008); 174 nM in data set [2] (ref Ballard et al., 2008); 185 nM in [3] (ref Ballard et al., 2008). In addition, in [6], the CYP1A2 autoinduction result is on record as “strong CYP1A2 autoinduction properties”. Moreover, the “binding sites of [3H]-Ro 15-4513 in the hippocampus occupied by the compound” value in data set [7] is recorded as “up to 90%”. The “enhancement of cognitive performance” value in data set [8] is listed as “have not shown enhancement of cognitive performance”.

For orientation: Kd means the concentration at which binding is half-saturated. Take `[3H]C([3H])([3H])N1Cc2c(C(=O)OCC)ncn2-c2ccc(N=[N+]=[N-])cc2C1=O` [Ro 15-4513, ethyl 8-azido-6-oxo-5-(tritritiomethyl)-4H-imidazo[1,5-a][1,4]benzodiazepine-3-carboxylate]: the Kd in data set [9] is 1.83 nM.

On to `Cc1ncc2n1-c1ccc(Cl)cc1C(c1ccccc1F)=NC2` [midazolam, reference compound], for which the “increase of the GABA-induced current” value in data set [10] amounted to 145 ± 9%. The “change of relative EEG power in the beta band” value in data set [11] is on record as 32.2 ± 7.04%.

For the compound `Cc1cc(-c2nnc3c4ccccc4c(OCc4cn(C)nn4)nn23)no1` [α5IA], the Ki in data set [5] (ref Dawson et al., 2006) is 0.6 nM; in data set [1] (ref Dawson et al., 2006), 0.7 nM; in data set [2] (ref Dawson et al., 2006) it was 0.9 nM; in [3] (ref Dawson et al., 2006) it was 0.6 nM. The “reason why development was stopped” value in data set [12] was “renal toxicity in preclinical species”. The “alcohol-induced impairment in word list recall” value in data set [13] is listed as “reversed an alcohol-induced impairment in word list recall”.
